The source of these data is patent US8163779B2, “Glucokinase activators” (Takeda San Diego, Inc., priority 2006, dated 2012).

This experiment has as its target T1, glucokinase (GK) (Homo sapiens, UniProt P35557).
T1 construct: I.D. No. 1 corresponds to residues 12-465 of glucokinase; made in house; host or cells: E. coli DH10b-T1r
T1 sequence (P35557 with tags, fused parts or gaps isoform P35557-2): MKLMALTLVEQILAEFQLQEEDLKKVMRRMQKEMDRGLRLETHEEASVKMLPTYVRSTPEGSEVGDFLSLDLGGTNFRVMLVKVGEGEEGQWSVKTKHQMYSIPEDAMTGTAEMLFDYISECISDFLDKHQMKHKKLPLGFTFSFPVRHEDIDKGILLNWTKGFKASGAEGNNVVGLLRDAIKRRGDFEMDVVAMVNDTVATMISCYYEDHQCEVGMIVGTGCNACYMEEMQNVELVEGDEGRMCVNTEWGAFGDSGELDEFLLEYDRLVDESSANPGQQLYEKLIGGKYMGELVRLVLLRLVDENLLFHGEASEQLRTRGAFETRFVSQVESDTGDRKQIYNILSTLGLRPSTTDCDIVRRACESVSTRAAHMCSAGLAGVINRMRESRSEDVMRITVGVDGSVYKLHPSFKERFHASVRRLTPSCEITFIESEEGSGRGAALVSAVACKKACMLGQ
As to the kind of experiment: enzymatic glucokinase activity assay (ATP consumption, KinaseGlo luminescence). Format: biochemical. The conditions noted are these: recombinant GK residues 12-465; 5 μM ATP, 5 mM Glucose; Kact = concentration that displays 50% of the maximal increase in GK activity; read-out: pKact. The source says: The activity of compounds as glucokinase activators may be assayed in vitro, in vivo or in a cell line. Provided below is an enzymatic glucokinase activity assay.
Purified glucokinase may be obtained as follows. […] SEQ.
The expression of recombinant glucokinase protein may be carried out by transformation and growth of DH10b-T1r E. coli cells incorporating the (pFLAG-CTC) plasmid in LB media. Protein expression can be induced in this system by the addition of IPTG to the culture medium.
Recombinant protein may be isolated from cellular extracts by passage over Sepharose Q Fast Flow resin (Pharmacia). This partially purified GK extract may then be further purified by a second passage over Poros HQ 10 (Applied Biosystems). The purity of GK may be determined on denaturing SDS-PAGE gel. Purified GK may then be concentrated to a final concentration of 20.0 mg/ml. After flash freezing in liquid nitrogen, the proteins can be stored at −78° C. in a buffer containing 25 mM TRIS-HCl pH 7.6, 50 mM NaCl, and 0.5 mM TCEP.
The activation properties of compounds for GK may be determined using a black 384-well-plate format under the following reaction conditions: 25 mM Hepes pH 7.2, 25 mM NaCl, 10 mM MgCl2, 0.01% Brij35, 1 mM DTT, 5 μM ATP, 5 mM Glucose 2% DMSO. The amount of ATP consumed may be determined quantitatively by addition of equal volume of luciferase reagent (luciferase+beetle luciferin—KinaseGlo Luminescent Kinase Assay kit from Promega). The luminescence intensity may be measured by using the Analyst HT from LJL Biosystems.
The reaction mixture may then be incubated at room temperature for 60 min, and quenched and developed by addition of 10 μL of luciferase reagent. Luminescence intensities of the resulting reaction mixtures may be measured after a 10 min incubation at room temperature. The luminescence intensity may be measured by using the Analyst HT from LJL Biosystems.
pKact values may be calculated by non-linear curve fitting of the compound concentrations and luminescence intensities to a standard inhibition/activation equation.

With `Cc1cc(S(=O)(=O)C2CCOCC2)cc(=O)n1[C@H](CC1CCCC1)C(=O)Nc1ncc(F)s1` [Example 194, (R)-3-cyclopentyl-N-(5-fluorothiazol-2-yl)-2-(6-methyl-2-oxo-4-(tetrahydro-2H-pyran-4-ylsulfonyl)pyridin-1(2H)-yl)propanamide], the EC50 is over 15.8 µM. Take `Cc1cc(S(=O)(=O)c2cccc(F)c2)cc(=O)n1[C@@H](CC1CCOCC1)C(=O)Nc1ncc(F)s1` [Example 189, (S)-2-(4-(3-fluorophenylsulfonyl)-6-methyl-2-oxopyridin-1(2H)-yl)-N-(5-fluorothiazol-2-yl)-3-(tetrahydro-2H-pyran-4-yl)propanamide]: the EC50 was 1.58 to 15.8 µM. For the compound `COC(C)(C)c1cnc(NC(=O)[C@H](CC2CCOCC2)n2ccc(S(=O)(=O)C3CC3)cc2=O)s1` [Example 133, (S)-2-(4-(cyclopropylsulfonyl)-2-oxopyridin-1(2H)-yl)-N-(5-(2-methoxypropan-2-yl)thiazol-2-yl)-3-(tetrahydro-2H-pyran-4-yl)propanamide], the EC50 lay in the range of 1.58 to 15.8 µM. As to `CC(C)(O)c1cnc(NC(=O)C(CC2CCOCC2)n2ccc(S(=O)(=O)C3CC3)cc2=O)s1` (centres unmarked) [Example 117, 2-(4-(cyclopropylsulfonyl)-2-oxopyridin-1(2H)-yl)-N-(5-(2-hydroxypropan-2-yl)thiazol-2-yl)-3-(tetrahydro-2H-pyran-4-yl)propanamide], the EC50 was over 15.8 µM.

On to `Cc1cc(-c2cc3ccccc3s2)cc(=O)n1[C@@H](CC1CCCCC1)C(=O)Nc1nccs1` [Example 108, (S)-2-(4-(benzo[b]thiophen-2-yl)-6-methyl-2-oxopyridin-1(2H)-yl)-3-cyclohexyl-N-(thiazol-2-yl)propanamide], for which the EC50 is over 15.8 µM. Then `Cc1cc(-c2csc3ccccc23)cc(=O)n1[C@@H](CC1CCCCC1)C(=O)Nc1nccs1` [Example 107, (S)-2-(4-(benzo[b]thiophen-3-yl)-6-methyl-2-oxopyridin-1(2H)-yl)-3-cyclohexyl-N-(thiazol-2-yl)propanamide], with over 15.8 µM. `Cc1cc(S(=O)(=O)C2CC2)cc(=O)n1C(CC1CCCC1)C(=O)Nc1ncc(Cl)s1` (centres unmarked) [Example 178, N-(5-chlorothiazol-2-yl)-3-cyclopentyl-2-(4-(cyclopropylsulfonyl)-6-methyl-2-oxopyridin-1(2H)-yl)propanamide]: the EC50 was under 1.58 µM.

`Cc1cc(S(=O)(=O)c2cccs2)cc(=O)n1C(CC1CCCCC1)C(=O)Nc1ncc(Cl)s1` (centres unmarked) [Example 60, N-(5-chlorothiazol-2-yl)-3-cyclohexyl-2-(6-methyl-2-oxo-4-(thiophen-2-ylsulfonyl)pyridin-1(2H)-yl)propanamide]: the EC50 is under 1.58 µM. For `COc1ccc2nc(NC(=O)[C@@H](CC3CCOCC3)n3ccc(S(=O)(=O)CCCO)cc3=O)sc2n1` [Example 71, (R)-2-(4-(3-hydroxypropylsulfonyl)-2-oxopyridin-1(2H)-yl)-N-(5-methoxythiazolo[5,4-b]pyridin-2-yl)-3-(tetrahydro-2H-pyran-4-yl)propanamide], the EC50 is over 15.8 µM. In the case of `COCCC(C)(C)S(=O)(=O)c1ccn([C@@H](CC2CCOCC2)C(=O)Nc2nc3ccc(OC)nc3s2)c(=O)c1` [Example 121, (S)-2-(4-(4-methoxy-2-methylbutan-2-ylsulfonyl)-2-oxopyridin-1(2H)-yl)-N-(5-methoxythiazolo[5,4-b]pyridin-2-yl)-3-(tetrahydro-2H-pyran-4-yl)propanamide], the EC50 fell in the range of 1.58 to 15.8 µM. For the compound `Cc1cc(S(=O)(=O)C2CC2)cc(=O)n1C(CC1CCOCC1)C(=O)Nc1ncc(Cl)s1` (centres unmarked) [Example 157, N-(5-chlorothiazol-2-yl)-2-(4-(cyclopropylsulfonyl)-6-methyl-2-oxopyridin-1(2H)-yl)-3-(tetrahydro-2H-pyran-4-yl)propanamide], the EC50 was 1.58 to 15.8 µM. Then `Cc1cc(S(=O)(=O)Cc2cccs2)cc(=O)n1C(CC1CCCCC1)C(=O)Nc1ncc(Cl)s1` (centres unmarked) [Example 80, N-(5-chlorothiazol-2-yl)-3-cyclohexyl-2-(6-methyl-2-oxo-4-(thiophen-2-ylmethylsulfonyl)pyridin-1(2H)-yl)propanamide], with 1.58 to 15.8 µM. Take `Cc1cc(S(=O)(=O)Cc2ccco2)cc(=O)n1C(CC1CCOCC1)C(=O)Nc1ncc(Cc2ccc(F)cc2)s1` (centres unmarked) [Example 144, N-(5-(4-fluorobenzyl)thiazol-2-yl)-2-(4-(furan-2-ylmethylsulfonyl)-6-methyl-2-oxopyridin-1(2H)-yl)-3-(tetrahydro-2H-pyran-4-yl)propanamide]: the EC50 is 1.58 to 15.8 µM. Then `O=C(Nc1cnccn1)[C@@H](CC1CCOCC1)n1ccc(S(=O)(=O)C2CC2)cc1=O` [Example 69, (R)-2-(4-(cyclopropylsulfonyl)-2-oxopyridin-1(2H)-yl)-N-(pyrazin-2-yl)-3-(tetrahydro-2H-pyran-4-yl)propanamide], with over 15.8 µM; and `Cc1cc(S(=O)(=O)C2CCCC2)cc(=O)n1C(CC1CCCCC1)C(=O)Nc1ncc(Cc2ccc(F)cc2)s1` (centres unmarked) [Example 82, 3-cyclohexyl-2-(4-(cyclopentylsulfonyl)-6-methyl-2-oxopyridin-1(2H)-yl)-N-(5-(4-fluorobenzyl)thiazol-2-yl)propanamide], with under 1.58 µM; and `Cc1cc(S(=O)(=O)C2CCCC2)cc(=O)n1C(CC1CC1)C(=O)Nc1nccs1` (centres unmarked) [Example 12, 2-(4-(cyclopentylsulfonyl)-6-methyl-2-oxopyridin-1(2H)-yl)-3-cyclopropyl-N-(thiazol-2-yl)propanamide], with 1.58 to 15.8 µM. Turning to `Cc1cc(S(=O)(=O)C2CCCC2)cc(=O)n1[C@H](CC1CCOCC1)C(=O)Nc1ncc(F)s1` [Example 39, (R)-2-(4-(cyclopentylsulfonyl)-6-methyl-2-oxopyridin-1(2H)-yl)-N-(5-fluorothiazol-2-yl)-3-(tetrahydro-2H-pyran-4-yl)propanamide], the EC50 is over 15.8 µM. Then `O=C(Nc1ncc(F)s1)[C@@H](CC1CCOCC1)n1ccc(S(=O)(=O)C2CCCC2)cc1=O` [Example 33, (R)-2-(4-(cyclopentylsulfonyl)-2-oxopyridin-1(2H)-yl)-N-(5-fluorothiazol-2-yl)-3-(tetrahydro-2H-pyran-4-yl)propanamide], with 1.58 to 15.8 µM; and `Cc1cc(S(=O)(=O)C2CCCC2)cc(=O)n1C(CC1CCCCC1)C(=O)Nc1ncc(CN2CCOCC2)s1` (centres unmarked) [Example 89, 3-cyclohexyl-2-(4-(cyclopentylsulfonyl)-6-methyl-2-oxopyridin-1(2H)-yl)-N-(5-(morpholinomethyl)thiazol-2-yl)propanamide], with under 1.58 µM; and `O=C(Nc1ncc(Cl)s1)[C@@H](CC1CCOCC1)n1ccc(S(=O)(=O)CC(F)(F)F)cc1=O` [Example 148, (R)-N-(5-chlorothiazol-2-yl)-2-(2-oxo-4-(2,2,2-trifluoroethylsulfonyl)pyridin-1(2H)-yl)-3-(tetrahydro-2H-pyran-4-yl)propanamide], with over 15.8 µM. Consider `Cc1cc(-c2cc3ccccc3o2)cc(=O)n1[C@@H](CC1CCCCC1)C(=O)Nc1nccs1` [Example 104, (S)-2-(4-(benzofuran-2-yl)-6-methyl-2-oxopyridin-1(2H)-yl)-3-cyclohexyl-N-(thiazol-2-yl)propanamide], for which the EC50 is over 15.8 µM. Then `Cc1cc(S(=O)(=O)C2CCCC2)cc(=O)n1[C@H](CC1CCOCC1)C(=O)Nc1ccc(F)cn1` [Example 164, (R)-2-(4-(cyclopentylsulfonyl)-6-methyl-2-oxopyridin-1(2H)-yl)-N-(5-fluoropyridin-2-yl)-3-(tetrahydro-2H-pyran-4-yl)propanamide], with over 15.8 µM. With `COc1ccc2nc(NC(=O)C(CC3CCCCC3)n3ccc(S(=O)(=O)C4CC4)cc3=O)sc2n1` (centres unmarked) [Example 68, 3-cyclohexyl-2-(4-(cyclopropylsulfonyl)-2-oxopyridin-1(2H)-yl)-N-(5-methoxythiazolo[5,4-b]pyridin-2-yl)propanamide], the EC50 was under 1.58 µM.
